The values below are quoted from earlier work in patent US20160022811A1 (Teva Pharmaceutical Industries Ltd., priority 2013, published 2016).

In the data set the test system is relapsing-remitting MS (RRMS). To be noted: registration trials, comparison with placebo.

As to “L-glutamic acid polymer with L-alanine, L-lysine, L-tyrosine, acetate (salt) [glatiramer acetate]”, the “reduction of relapse rate” value is on record as “about one third”.
